Each structure is given as a SMILES string.

Chain of Casein kinase I isoform alpha (P48729 whole entry, canonical isoform): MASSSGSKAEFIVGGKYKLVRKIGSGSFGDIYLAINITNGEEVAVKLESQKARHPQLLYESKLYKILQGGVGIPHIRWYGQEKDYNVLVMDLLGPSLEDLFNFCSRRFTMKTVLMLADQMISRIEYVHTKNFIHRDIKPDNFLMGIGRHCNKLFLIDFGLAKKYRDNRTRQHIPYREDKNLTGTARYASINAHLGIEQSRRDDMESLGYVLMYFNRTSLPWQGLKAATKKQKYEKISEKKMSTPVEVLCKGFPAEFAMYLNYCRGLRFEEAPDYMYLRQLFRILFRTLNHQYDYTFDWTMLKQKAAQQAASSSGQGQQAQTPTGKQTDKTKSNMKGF

The experiment has as its target Casein kinase I isoform alpha (Homo sapiens, UniProt P48729). Put plainly: Inhibition of CK1 after 30 mins by liquid scintillation counter.
In turn, `CC(C)n1cnc2c(NCc3ccc(-c4ccccn4)cc3)nc(NC[C@@H](O)CO)nc21` displayed an IC50 of 180 nM.
For `CC(C)n1cnc2c(NCc3ccc(-c4ccccn4)cc3)nc(N3C[C@H](O)C[C@H]3CO)nc21` the value was 390 nM; for `CC(C)n1cnc2c(NCc3ccc(-c4ccccn4)cc3)nc(NCC[C@H](O)CO)nc21`, 660 nM.
For `CC(C)[C@H](N)C(=O)OC[C@H](O)CNc1nc(NCc2ccc(-c3ccccn3)cc2)c2ncn(C(C)C)c2n1` the value was 150 nM.

(Values after BindingDB's records for doi:10.1016/j.ejmech.2012.08.033 (2012).)
